The values below come from PMC8091061, “Ceramide-1-phosphate transfer protein (CPTP) regulation by phosphoinositides” (The Journal of Biological Chemistry, 2021).

For assay [1], the target named is T1, human GLTP (Homo sapiens, UniProt Q9NZD2).
T1 sequence (Q9NZD2 1-209): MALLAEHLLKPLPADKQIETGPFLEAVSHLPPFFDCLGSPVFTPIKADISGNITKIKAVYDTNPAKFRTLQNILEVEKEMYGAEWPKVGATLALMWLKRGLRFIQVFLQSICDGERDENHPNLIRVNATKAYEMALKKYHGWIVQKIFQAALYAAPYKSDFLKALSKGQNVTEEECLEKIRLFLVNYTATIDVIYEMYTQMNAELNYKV
Description: FRET intervesicular lipid transfer. The settings on record: labelled compound; POPC donor to POPC acceptor vesicles, pH 6.6, 150 mM NaCl, EDTA, 25 °C; transfer cargo, not chemically converted. The assay is classed as biochemical.

In assay [2] the target is human CPTP (wtCPTP). Description: FRET from CPTP Trp/Tyr to dansyl-PE in POPC vesicles. The assay is classed as binding. The settings on record: pH 6.6, 150 mM NaCl, EDTA, 25 °C. The text has this:
FRET from CPTP Trp/Tyr to dansyl-PE in POPC vesicles on human CPTP (wtCPTP)

[3] abbreviates: apparent Kd for POPC vesicles with 10 mol% lipid and 2 mol% dansyl-PE (vesicle PC concentration, not free lipid).

Take `CCCCCCCCCCCCC/C=C/[C@@H](O)[C@H](CO[C@@H]1O[C@H](CO)[C@H](O)[C@H](O)[C@H]1O)NC(=O)CCCCCCCCC/C=C/c1c2ccccc2cc2ccccc12` [AV-GalCer]: the “FRET intervesicular lipid transfer” value in assay [1] was “GalCer transfer rates by GLTP were unaffected by PI and PI-3P”. As for `CCCCCCCC/C=C\CCCCCCCC(=O)OC[C@H](COP(=O)(O)O[C@@H]1[C@H](O)[C@H](O)[C@@H](O)[C@H](O)[C@H]1O)OC(=O)CCCCCCC/C=C\CCCCCCCC` [PI, 1,2-dioleoyl-sn-glycero-3-phospho-(1'-myo-inositol)], the Kd in assay [2] (setting [3]) was found to be 0.75 ± 0.09 µM.

With `CCCCCCCC/C=C\CCCCCCCC(=O)OC[C@H](COP(=O)(O)O[C@H]1[C@H](O)[C@@H](O)[C@H](OP(=O)(O)O)[C@@H](O)[C@H]1O)OC(=O)CCCCCCC/C=C\CCCCCCCC` [PI-4P, 1,2-dioleoyl-sn-glycero-3-phospho-(1'-myo-inositol-4'-phosphate)], the Kd in assay [2] (setting [3]) was 0.26 ± 0.03 µM. With `CCCCCCCC/C=C\CCCCCCCC(=O)OC[C@H](COP(=O)(O)O[C@@H]1[C@H](O)[C@H](O)[C@@H](OP(=O)(O)O)[C@H](OP(=O)(O)O)[C@H]1O)OC(=O)CCCCCCC/C=C\CCCCCCCC` [PI-(4,5)P2, 1,2-dioleoyl-sn-glycero-3-phospho-(1'-myo-inositol-4',5'-bisphosphate)], the Kd in assay [2] (setting [3]) was 0.26 ± 0.04 µM.

Take `CCCCCCCC/C=C\CCCCCCCC(=O)O[C@H](COC(=O)CCCCCCCCCCCCCCC)COP(=O)([O-])OCC[N+](C)(C)C` [POPC, 1-Palmitoyl-2-oleyl-sn-glycero-3-phosphocholine]: the Kd in assay [2] (pure POPC vesicles with 2 mol% dansyl-PE (apparent, vesicle PC concentration)) was found to be 1.76 ± 0.2 µM. In the case of PI-3P, the Kd in assay [2] (setting [3]) stood at 0.29 ± 0.04 µM.
